{
  "source": "ChEMBL document CHEMBL3804753",
  "about": "“Substituted quinolines as noncovalent proteasome inhibitors” (Bioorg Med Chem, 2016)",
  "target": "T1, Proteasome Macropain subunit MB1 (Homo sapiens) (UniProt P28074)",
  "T1 sequence (whole entry)": "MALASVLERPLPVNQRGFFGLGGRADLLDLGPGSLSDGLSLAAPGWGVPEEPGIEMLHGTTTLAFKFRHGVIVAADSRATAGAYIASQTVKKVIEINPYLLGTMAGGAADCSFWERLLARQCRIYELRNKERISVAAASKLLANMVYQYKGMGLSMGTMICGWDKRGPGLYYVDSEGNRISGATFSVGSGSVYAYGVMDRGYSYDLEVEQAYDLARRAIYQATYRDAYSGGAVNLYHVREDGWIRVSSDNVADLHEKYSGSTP",
  "assay": "Inhibition of human 20S proteasome chymotryptic-like activity using Suc-LLVY-AMC as substrate assessed as fluorescence quinching control by fluorescence assay",
  "note": "The source made the active and inactive calls. The rule behind the calls is not given here.",
  "data": [
    {"smiles": "Cc1cc(C)c2cc(-c3ccccc3)c(-c3ccccc3)nc2c1", "values": [
      {"measurement": "inhibition", "result": "inactive"}
    ]}
  ]
}
